The source made the active and inactive calls.
Experiments:
Assay type in all cases: functional, cell-based
[1] = system: Vero; test: Antiviral activity was evaluated against HSV-2 in Vero cells at concentration up to 10 ug/mL by plaque reduction assay; Inactive; conditions: Chlorocebus sabaeus
[2] = system: Vero; test: Antiviral activity was evaluated against HSV-1 in Vero cells at concentration up to 10 ug/mL by plaque reduction assay; Inactive; conditions: Chlorocebus sabaeus
[3] = system: MT4; test: […] was evaluated against HIV-1 in MT-4 cells at concentration up to 10 ug/mL by indirect immunofluorescence assay; Inactive; conditions: Homo sapiens

Measured: Activity

Nc1ncnc2c1ncn2N1CC[C@H](CO)[C@H]1CO
inactive: all assays above

Cc1cn(N2CC[C@H](CO)[C@H]2CO)c(=O)[nH]c1=O
inactive: all assays above
